Each structure is given as a SMILES string.

The target in the assay is AMPA receptors. Description: Binding of 3H-AMPA to rat cerebral membrane material. To be noted: displacement of 3H-AMPA, membrane material from rat cerebra, incubated on ice for 60 minutes. On the procedure:
The pharmacological activity of the compounds I according to the invention was investigated on isolated membrane material from rat brains. For this purpose, the membrane material was incubated in the presence of the substances according to the invention with the radiolabeled substances ^3 H-2-amino-3-hydroxy-5-methyl-4-isoxazolepropionic acid (^3 H-AMPA), ^3 H-5,7-dichlorokynurenic acid or ^3 H-kainate. During this the said radioligands bind in each case to the glutamate receptors specific for them, ie. to AMPA receptors, (^3 H-5,7-dichlorokynurenic acid-binding) NMDA receptors and kainate receptors respectively. After the incubation, the membranes with the receptor-bound radioligands were separated from the free radioligands, and the radioactivity associated with the membranes as measured by liquid scintillation counting. The concentration of receptor-bound ligands, and the extent of displacement of a given radioligand by particular concentrations of the compounds I according to the invention, can be determined from the radioactivity of the membranes. […]
On the technique in general: Loss of bound radioactivity is the signal in a displacement assay; it reports binding, not function.

As usually defined, the Ki is a measure of affinity in units of concentration, obtained from inhibition or displacement. Read a low Ki as a stronger hold on the target. `O=C(NCc1ccn(-c2cc3[nH]c(=O)c(=O)[nH]c3cc2[N+](=O)[O-])c1)c1ccncc1` [Example 3, acetate] displayed an inhibitory constant (Ki) of less than 10 µM.
With `O=C(O)Cn1c(=O)c(=O)[nH]c2cc([N+](=O)[O-])c(-n3ccc(CN4CCCCC4)c3)cc21` [Example 14, 1-Carboxymethyl-6-nitro-7-(3-((1-piperidinyl)methyl)-1-pyrrolyl)quinoxaline-2,3(1H,4H)-dione] the figure was less than 10 µM.

These data come from patent US5849743A, “Quinoxalines and drugs prepared therefrom” (BASF Aktiengesellschaft, priority 1997, dated 1998).
